Legend:
[1] = Multiple rising dose study: PK of soticlestat and M-I (day 1, day 14), oral solution; assay type: in vivo, human; details: for AUC24 mean / AUC∞, mean / Cmax, mean / Tmax, median: soticlestat plasma; for CLR, mean: soticlestat urine
From the text: The second trial was a phase I, randomized, double-blind, placebo-controlled study, with soticlestat administered by oral solution at multiple escalating doses in healthy subjects. The criteria for subject inclusion and exclusion are similar to those of the first trial described above but with the added screening of female subjects for pregnancy. […] After a cohort finished their dosage regimen, a decision was made whether to escalate the dosage for the next cohort. Cohorts 1, 2, and 3 received 100, 300, and 400 mg once daily (QD), respectively, and cohorts 4 and 5 received 300 mg twice daily (BID) or 600 mg QD. The regimen for cohorts 4 and 5 were discontinued after subjects began experiencing adverse neurological and psychiatric events. Example 6 describes the PK protocol and the results.
The blood sampling protocol included obtaining a 4-ml blood sample for PK analysis 30 minutes pre-dose, and at 10, 15, 20, and 30 minutes and 1, 1.5, 2, 3, 4, 6, 8, 10, 12, 16, and 24 hours post-dose on days 1 and 14. Cohort 3, receiving 400 mg QD, had additional blood samples taken on day 7 at 15 and 30 minutes, and 1, 2, 4, and 8 hours post-dose. […] The median time for Cmax (Tmax) across the dose range varied between 0.33-0.5 hours. […] The 24 hour plasma area under the concentration-time curve (AUC24) for doses 100, 300, and 400 mg at day 14 were 458, 2690, and 2800 ng×h/mL, respectively. The concentration time profiles were similar from day 1 through day 14.
This study administered soticlestat to healthy male and female adults in an oral solution at escalating daily dose levels. […] Eight subjects were randomly assigned to one of five cohorts, with two subjects in each cohort receiving a placebo. Single daily dosing occurred in the morning after a minimum fast of 8 hours and subjects continued fasting until 2 hours post-dose. […] After a full review of the safety data from cohorts 1 and 2, including vitals, physical examination, BMI, adverse events, and clinical laboratory tests, […] were approved to receive increased dosages of 300 mg twice daily (BID) and 600 mg once daily (QD), respectively.
All cohorts had additional blood samples taken 30 minutes pre-dose on days 7, 11, 12, and 13. […] had additional blood samples taken for PK data on day 7 at post-dose times 15 and 30 minutes, and 1, 2, 4, and 8 hours. The PK parameter analysis was performed as described in example 2. […] A power model estimated the dose proportionality for Cmax and AUC∞ on day 1 and day 14 for cohorts receiving once daily dosing. An analysis of variance (ANOVA) assessed the variation in time dependency for Cmax and AUC∞ on day 1 and day 14 for cohorts receiving once daily dosing.
Pre-dose urine samples were collected for PK analysis for 12 hours pre-dose of day 1 and for 2 hours pre-dose of day 14. Post-dose urine samples were collected at intervals of 0-6, 6-12, and 12-24 hours.

[2] = Healthy Japanese subjects: safety and tolerability; assay type: in vivo, human
From the text: Primary Objective: To evaluate the safety and tolerability of TAK-935 in healthy Japanese subjects when administered as single oral dose or multiple oral doses with titration. Secondary Objective: To evaluate the PK of TAK-935 in healthy Japanese subjects when administered as single oral dose or multiple oral doses with titration.
This study consisted of 2 parts, and was a randomized, double-blind, placebo-controlled study to assess safety, tolerability, and PK and PD of TAK-935 when administered orally in healthy Japanese subjects.
The primary endpoint of the study included: Safety endpoint: Percentage of subjects who experience at least 1 TEAE Secondary endpoints included:
• Laboratory tests. • Vital signs. • ECG parameters.

[3] = multiple doses 100-300 mg BID, TAK-935 group

O=C(c1cccnc1-c1ccncc1)N1CCC(O)(Cc2ccccc2)CC1 [soticlestat]
accumulated exposure, AUC24 day 14 ([1]; both, human, in vivo, 300 mg): ~1.42 fold
accumulated exposure, Cmax day 14 ([1]; both, human, in vivo, 300 mg, 14 days): approximately 1.74 fold
t½z, mean ([1]; both, human, in vivo, 600 mg): 290 min
CL/F, mean ([1]; human, in vivo, 600 mg): 194 L/h
AUC24 mean ([1]; 100 mg QD day 1): 446 ng·h/mL
AUC∞, mean ([1]; 100 mg QD day 1): 451 ng·h/mL
Cmax, mean ([1]; 100 mg QD day 1): 468 ng/mL
Tmax, median ([1]; 100 mg QD day 1): 25.2 min
AUC24 mean ([1]; 100 mg QD day 14): 458 ng·h/mL
AUC∞, mean ([1]; 100 mg QD day 14): 509 ng·h/mL
Cmax, mean ([1]; 100 mg QD day 14): 481 ng/mL
Tmax, median ([1]; 100 mg QD day 14): 25.2 min
AUC24 mean ([1]; 300 mg BID day 1 (first dose)): 1460 ng·h/mL
AUC∞, mean ([1]; 300 mg BID day 1 (first dose)): 1510 ng·h/mL
Cmax, mean ([1]; 300 mg BID day 1 (first dose)): 1330 ng/mL
Tmax, median ([1]; 300 mg BID day 1 (first dose)): 26.4 min
AUC24 mean ([1]; 300 mg QD day 1): 2030 ng·h/mL
AUC∞, mean ([1]; 300 mg QD day 1): 2040 ng·h/mL
Cmax, mean ([1]; 300 mg QD day 1): 2020 ng/mL
Tmax, median ([1]; 300 mg QD day 1): 25.2 min
AUC24 mean ([1]; 300 mg QD day 14): 2690 ng·h/mL
AUC∞, mean ([1]; 300 mg QD day 14): 2840 ng·h/mL
Cmax, mean ([1]; 300 mg QD day 14): 3100 ng/mL
Tmax, median ([1]; 300 mg QD day 14): 19.8 min
AUC24 mean ([1]; 400 mg QD day 1): 2500 ng·h/mL
AUC∞, mean ([1]; 400 mg QD day 1): 2520 ng·h/mL
Cmax, mean ([1]; 400 mg QD day 1): 2630 ng/mL
Tmax, median ([1]; 400 mg QD day 1): 19.8 min
AUC24 mean ([1]; 400 mg QD day 14): 2800 ng·h/mL
AUC∞, mean ([1]; 400 mg QD day 14): 3090 ng·h/mL
Cmax, mean ([1]; 400 mg QD day 14): 2930 ng/mL
Tmax, median ([1]; 400 mg QD day 14): 19.8 min
AUC24 mean ([1]; 600 mg QD day 1): 4180 ng·h/mL
AUC∞, mean ([1]; 600 mg QD day 1): 4220 ng·h/mL
Cmax, mean ([1]; 600 mg QD day 1): 3060 ng/mL
Tmax, median ([1]; 600 mg QD day 1): 30 min
CLR, mean ([1]; 100 mg QD day 1): 0.220 L/h
CLR, mean ([1]; 100 mg QD day 14): 0.200 L/h
CLR, mean ([1]; 300 mg BID day 1): 0.350 L/h
CLR, mean ([1]; 300 mg QD day 1): 0.300 L/h
CLR, mean ([1]; 300 mg QD day 14): 0.220 L/h
CLR, mean ([1]; 400 mg QD day 1): 0.370 L/h
CLR, mean ([1]; 400 mg QD day 14): 0.380 L/h
CLR, mean ([1]; 600 mg QD day 1): 0.340 L/h
deaths, SAEs, TEAEs leading to discontinuation ([2]; healthy Japanese subjects): No deaths, SAEs, or TEAEs leading to study drug discontinuation
intensity of TEAEs ([2]; healthy Japanese subjects): All of the TEAEs were mild
subjects who experienced TEAEs [2, 3]: 5 subjects
subjects with drug-related TEAEs [2, 3]: 3 subjects
tolerability ([2]; single dose up to 1200 mg and multiple doses 100 to 300 mg BID): well tolerated

Source: patent publication US20250213547A1, “METHODS OF TREATING NEUROLOGICAL DISEASES” (priority 2022, published 2025)
